≈ marks a conversion by molar mass, not a printed value. Like-named read-outs stand apart in the source and are kept apart here.

Among the data in publication PMC11239830, “Synthetic macrolides overcoming MLSBK-resistant pathogens” (Cell Discovery, 2024) are melting point and MIC values, retold here.

One series concerns S. pneumoniae. As to the kind of experiment: MIC, broth microdilution. Format: cell-based, Streptococcus pneumoniae. The following applies: Streptococcus pneumoniae, read-out: MIC. In outline: (§1)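 Read-out is the lowest concentration without observed growth after 16–20 h at 37 °C, using the CLSI broth microdilution method.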
In another series the test system is M. catarrhalis. As to the kind of experiment: MIC, broth microdilution. Format: cell-based, Moraxella catarrhalis. The following applies: Moraxella catarrhalis; M. catarrhalis 13L332, Ery-S; read-out: MIC. On the procedure:
MICs were determined by the microdilution method according to the Clinical and Laboratory Standards Institute guidelines. Briefly, the stock solution of compounds and the reference antibiotics were diluted 2-fold in sterile 96-well plates with cation-adjusted Mueller-Hinton broth, and mixed with CAMHB-containing bacteria to give a final inoculum of 5 × 10^5 CFU/mL for broth microdilution experiments. […] Finally, the 96-well plates were incubated at 37 °C for 16–20 h to observe and record the results. The lowest concentration at which no bacterial growth could be observed visually was identified as the MICs of the compounds. The assay for MICs was replicated at least three times.
On the technique in general: Broth dilution looks for growth in wells or tubes with falling amounts of substance.

The test system of another series is S. pyogenes. As to the kind of experiment: MIC, broth microdilution. Format: cell-based, Streptococcus pyogenes. To be noted: Streptococcus pyogenes, S. pyogenes 12-206, c-ermTR; read-out: MIC. Put shortly:
as §1

In a further series the test system is H. influenzae. The series can be described thus: MIC, broth microdilution. To be noted: Haemophilus influenzae, ATCC49247, H. influenzae ATCC49247, Azi-S; read-out: MIC. Format: cell-based, Haemophilus influenzae. Put shortly: as §1
[1] abbreviates: ATCC49619, S. pneumoniae ATCC49619, Ery-S.
[2] abbreviates: S. pneumoniae 05O173, c-ermB, mef.

`CC[C@H]1OC(=O)[C@H](C)[C@@H](OC(=O)NCCCOCCC#Cc2ccc3c(=O)c(C(=O)O)cn(C)c3c2)[C@H](C)[C@@H](O[C@@H]2O[C@H](C)C[C@H](N(C)C)[C@H]2O)[C@](C)(OC)C[C@@H](C)C(=O)[C@H](C)[C@H]2NC(=O)O[C@@]21C` (hydrate or solvate) [MCX-190]: the melting point was in the range of 157.9 to 158.8 °C.

With `CCOC(=O)c1cn(C)c2cc(C#CCCCCCCNC(=O)O[C@H]3[C@H](C)[C@@H](O[C@@H]4O[C@H](C)C[C@H](N(C)C)[C@H]4O)[C@](C)(OC)C[C@@H](C)C(=O)[C@H](C)[C@H]4NC(=O)O[C@]4(C)[C@@H](CC)OC(=O)[C@@H]3C)ccc2c1=O` (hydrate or solvate) [88h], the melting point lay within 141.1 to 142 °C.

In the case of `CC[C@H]1OC(=O)[C@H](C)[C@@H](OC(=O)NCCCOCCC#Cc2ccc3c(=O)c(C(=O)O)cn(CC)c3c2)[C@H](C)[C@@H](O[C@@H]2O[C@H](C)C[C@H](N(C)C)[C@H]2O)[C@](C)(OC)C[C@@H](C)C(=O)[C@H](C)[C@H]2NC(=O)O[C@@]21C` [95f], the MIC with S. pneumoniae (setting [1]) is at most 0.008 µg/mL; in the series with S. pneumoniae (setting [2]), 4 µg/mL (≈ 4.07 µM); in the series with S. pneumoniae (S. pneumoniae 07P390, c-ermB), 0.12 µg/mL (≈ 0.122 µM); with M. catarrhalis, 0.5 µg/mL (≈ 0.509 µM); in the series on S. pyogenes it was 0.5 µg/mL (≈ 0.509 µM).

In the case of `CC[C@H]1OC(=O)[C@H](C)[C@@H](OC(=O)NCCCCCCC#Cc2ccc3c(=O)c(C(=O)O)cn(C)c3c2)[C@H](C)[C@@H](O[C@@H]2O[C@H](C)C[C@H](N(C)C)[C@H]2O)[C@](C)(OC)C[C@@H](C)C(=O)[C@H](C)[C@H]2NC(=O)O[C@@]21C` (hydrate or solvate) [MCX-219], the melting point lay within 179.5 to 180.3 °C.

With `CC[C@H]1OC(=O)[C@H](C)[C@@H](OC(=O)NCCCOCCC#Cc2ccc3c(=O)c(C(=O)O)cn(C4CC4)c3c2)[C@H](C)[C@@H](O[C@@H]2O[C@H](C)C[C@H](N(C)C)[C@H]2O)[C@](C)(OC)C[C@@H](C)C(=O)[C@H](C)[C@H]2NC(=O)O[C@@]21C` [95c], the MIC was determined as 0.03 µg/mL (≈ 0.0301 µM) with S. pneumoniae (setting [1]); 4 µg/mL (≈ 4.02 µM) with S. pneumoniae (setting [2]); 0.25 µg/mL (≈ 0.251 µM) with S. pneumoniae (S. pneumoniae 07P390, c-ermB); 0.5 µg/mL (≈ 0.502 µM) in the series on M. catarrhalis; 2 µg/mL (≈ 2.01 µM) with H. influenzae; 0.5 µg/mL (≈ 0.502 µM) in the series on S. pyogenes.

Consider `CC[C@H]1OC(=O)[C@H](C)[C@@H](OC(=O)NCCCCCCC#Cc2ccc3c(=O)c(C(=O)O)cn(C)c3c2)[C@H](C)[C@@H](O[C@@H]2O[C@H](C)C[C@H](N(C)C)[C@H]2O)[C@](C)(O)C[C@@H](C)CN(C)[C@H](C)[C@@H](O)[C@]1(C)O` [106g], for which the MIC in the series with S. pneumoniae (setting [1]) is 0.25 µg/mL (≈ 0.265 µM); in the series on S. pneumoniae (setting [2]), 128 µg/mL (≈ 136 µM); in the series with S. pneumoniae (S. pneumoniae 07P390, c-ermB), 4 µg/mL (≈ 4.24 µM); with M. catarrhalis, 0.5 µg/mL (≈ 0.53 µM); in the series with H. influenzae it was 8 µg/mL (≈ 8.48 µM); with S. pyogenes, 4 µg/mL (≈ 4.24 µM).

By melting point is commonly meant the temperature, or range, at which the solid turns liquid.
